Assay results reported in ChEMBL document CHEMBL3044890, “Peroxidizing Phytotoxicities of 1, 2-Alkylene-1, 2, 4-triazolidines and 3, 4-Alkylene-1, 3, 4-thiadiazolidines” (J Pestic Sci, 1996).

Each molecule was assayed against T1, Protoporphyrinogen IX oxidase (Zea mays, UniProt Q9FYV8) (assay: Inhibition of Zea mays cv. Anjou (maize) plastid Protoporphyrinogen IX oxidase assessed as inhibition of protoporphyrin IX by fluorescence spectrophotometry). Settings: read-out: pI50 (converted).
T1 sequence (Q9FYV8 whole entry): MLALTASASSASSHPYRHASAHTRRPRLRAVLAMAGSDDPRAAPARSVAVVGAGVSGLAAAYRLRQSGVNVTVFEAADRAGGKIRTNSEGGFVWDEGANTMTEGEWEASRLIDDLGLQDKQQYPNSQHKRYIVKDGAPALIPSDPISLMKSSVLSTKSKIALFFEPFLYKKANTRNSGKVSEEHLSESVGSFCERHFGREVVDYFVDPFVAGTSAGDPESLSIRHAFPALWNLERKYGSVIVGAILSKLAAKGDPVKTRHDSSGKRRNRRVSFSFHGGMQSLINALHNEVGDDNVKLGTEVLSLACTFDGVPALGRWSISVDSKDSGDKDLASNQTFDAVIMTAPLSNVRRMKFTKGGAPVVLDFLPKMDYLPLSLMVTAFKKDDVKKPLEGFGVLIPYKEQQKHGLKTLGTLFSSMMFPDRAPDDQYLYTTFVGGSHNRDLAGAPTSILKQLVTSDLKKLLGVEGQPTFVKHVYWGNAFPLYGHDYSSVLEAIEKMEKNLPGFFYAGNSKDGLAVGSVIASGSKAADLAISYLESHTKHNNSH

| IC50 | SMILES |
| --- | --- |
| 0.0129 µM | O=c1n(-c2ccc(Br)cc2)c(=S)n2n1CCCC2 |
| 0.0708 µM | S=c1n(-c2ccc(Br)cc2)c(=S)n2n1CCCCC2 |
| 0.0537 µM | O=c1n(-c2ccc(Br)cc2)c(=S)n2n1CCC2 |
| 0.0288 µM | S=c1n(-c2ccc(Br)cc2)c(=S)n2n1CCC2 |
| 0.129 µM | O=c1n(-c2ccc(Br)cc2)c(=S)n2n1CCCCC2 |
| 2.51 µM | O=c1n(-c2ccc(Br)cc2)c(=O)n2n1CCCCC2 |

The remaining lines, values behind:

| SMILES | IC50 |
| --- | --- |
| O=c1n(-c2ccc(Br)cc2)c(=O)n2n1CCCC2 | 0.339 µM |
| O=c1n(-c2ccc(Br)cc2)c(=O)n2n1CCC2 | 0.617 µM |
| S=c1s/c(=N\c2ccc(Br)cc2)n2n1CCC2 | 0.324 µM |
| O=C1C2=C(CCCC2)C(=O)N1c1ccc(Br)cc1 | 0.0501 µM |
| O=c1s/c(=N\c2ccc(Br)cc2)n2n1CCC2 | 3.63 µM |
